According to patent US20240085425A1, “BIOMARKER AND APPLICATION THEREOF” (ADLAI NORTYE BIOPHARMA CO., LTD., priority 2022, published 2024):
Residues, ends and D or L forms follow the SMILES beside them. *: point of attachment. Cbz = O=C(OCc1ccccc1)*

Tests used:
Assay type in all cases: cell-based
[1] = system: non-phosphorylated β-catenin; assay: Non-phosphorylated β-catenin content in Colo205-LUC-TCF/LEF cells, compound plus MG132; details: 200 nM compound plus 2 μM MG132, 4 hours, FIG. 2
Description: Add 500 ul medium containing 200 nM compound plus 2 μM MG132 or 200 nM compound plus control solvent to each well of a 6-well cell culture plate, then add 500 ul containing 10^6 Colo205-LUC-TCF/LEF cells respectively, and incubate for 4 hours Finally, the protein was collected to detect the content of non-phosphorylated β-catenin.

[2] = system: non-phosphorylated β-catenin; assay: Western blot of non-phosphorylated β-catenin content in DU4475 cells; details: overnight, read-out: Non-phosphorylated β-catenin content inhibition IC50
Description: (§1) The Wnt signaling pathway is a key pathway for abnormal tumor growth. In colon cancer, liver cancer, pancreatic cancer and other cancers, a large number of patients have abnormal activation of the Wnt signaling pathway. The Wnt signaling pathway depends on the fine balance of β-catenin protein level. When Wnt signaling is not activated, β-catenin is phosphorylated by CK1 and APC/Axin/GSK-3β complexes, and the β-catenin protein is kept at a low level through ubiquitin-dependent proteasome degradation. When the Wnt signaling pathway is activated, β-catenin maintains a stable state of non-phosphorylation, and non-phosphorylated β-catenin can be transported into the nucleus through Rac1 and other factors, and plays a transcriptional regulatory role by binding to LEF/TCF transcription factors in the nucleus, activates downstream target genes such as C-myc and Cyclin D1, and promotes cell proliferation. Therefore, abnormal activation of the Wnt signaling pathway in tumor cells will lead to abnormal proliferation of tumors. […]
(§2) Add 500 μL of the compound with the highest concentration shown in FIG. 1 to each well of the 6-well cell culture plate, and make a 10-fold gradient dilution of the compound concentration. […] Load the protein sample directly to the SDS-PAGE gel for electrophoresis separation, transfer the protein on the SDS-PAGE gel to the PVDF membrane; after the transfer was completed, the protein was blocked by Western blocking solution, then Rabbit anti-β-catenin non-phospho S37/After T41 (ab278503) was added and the protein was incubated at room temperature for one hour and washed, the content of non-phosphorylated β-catenin was detected by incubation with Goat Anti-Rabbit IgG H&L (HRP) (ab6721). […]

[3] = system: non-phosphorylated β-catenin; assay: Western blot of non-phosphorylated β-catenin content in HepG2 cells; details: overnight, read-out: Non-phosphorylated β-catenin content inhibition IC50
Description: as §1, §2

[4] = system: non-phosphorylated β-catenin; assay: Western blot of non-phosphorylated β-catenin content in Colo205 cells
Description: The Wnt signaling pathway is a key pathway for abnormal tumor growth. In colon cancer, liver cancer, pancreatic cancer and other cancers, a large number of patients have abnormal activation of the Wnt signaling pathway. The Wnt signaling pathway depends on the fine balance of β-catenin protein level. When Wnt signaling is not activated, β-catenin is phosphorylated by CK1 and APC/Axin/GSK-3β complexes, and the β-catenin protein is kept at a low level through ubiquitin-dependent proteasome degradation. When the Wnt signaling pathway is activated, β-catenin maintains a stable state of non-phosphorylation, and non-phosphorylated β-catenin can be transported into the nucleus through Rac1 and other factors, and plays a transcriptional regulatory role by binding to LEF/TCF transcription factors in the nucleus, activates downstream target genes such as C-myc and Cyclin D1, and promotes cell proliferation. Therefore, abnormal activation of the Wnt signaling pathway in tumor cells will lead to abnormal proliferation of tumors. In order to explore the inhibitory mechanism of the compound on the proliferation of tumor cell lines, the compound AN10250399, AN10250421 or AN10250484 was used to treat sensitive cells Colo205, DU4475 and HepG2, and Western blot was used to detect the content of non-phosphorylated β-catenin in the Wnt pathway to clarify the effect of the compound on content of the non-phosphorylated β-catenin.
Add 500 μL of the compound with the highest concentration shown in FIG. 1 to each well of the 6-well cell culture plate, and make a 10-fold gradient dilution of the compound concentration. Then 500 μL of 10^6 Colo205, DU4475 and HepG2 or 500 μL of medium were inoculated into each well, and corresponding solvent treatment was performed simultaneously as negative control wells. The cells were placed in a 5% CO2 cell incubator, cultured overnight at 37° C. The culture medium was removed, washed once with PBS, 200 μL of RIPA buffer containing protease inhibitors was added to each well, and the protein lysate was collected after lysing on ice for 20 min. Add an appropriate amount of concentrated SDS-PAGE protein loading buffer to the collected protein lysate samples, and heat at 100° C. or in a boiling water bath for 3-5 minutes to fully denature the protein. Load the protein sample directly to the SDS-PAGE gel for electrophoresis separation, transfer the protein on the SDS-PAGE gel to the PVDF membrane; after the transfer was completed, the protein was blocked by Western blocking solution, then Rabbit anti-β-catenin non-phospho S37/After T41 (ab278503) was added and the protein was incubated at room temperature for one hour and washed, the content of non-phosphorylated β-catenin was detected by incubation with Goat Anti-Rabbit IgG H&L (HRP) (ab6721). As a control, glyceraldehyde-3-phosphate dehydrogenase (GAPDH) was used as an internal standard protein

| Structure (SMILES) | Effect of MG132 on the reduction of non-phosphorylated β-catenin content caused by AN10250484 [1] | IC50 [2] | IC50 [3] | Effect on content of non-phosphorylated β-catenin (active β-catenin), in words ([4]; FIG. 1) | IC50 ([4]; overnight, Western blot, read-out: Non-phosphorylated β-catenin content inhibition IC50) |
| --- | --- | --- | --- | --- | --- |
| CC(C)C[C@@H](C=O)NC(=O)[C@H](CC(C)C)NC(=O)[C@H](CC(C)C)NC(=O)OCc1ccccc1 [MG132] (Cbz-Leu-Leu-Leu-aldehyde) | reverses the reduction of the content of non-phosphorylated β-catenin |  |  |  |  |
| Cc1nc(NCc2ccc(Oc3cnc(C(F)(F)F)nc3)nc2)nc2c1NC(=O)[C@H](C)N2C [AN10250421] |  | 2.2 nM | 51.6 nM | decrease the content of non-phosphorylated β-catenin | 10 nM |
